The structures appear in SMILES notation. pIC50: −log10 of the molar value.

Test [1] deals with EML4-ALK fusion protein v1 (Homo sapiens (Human), UniProt Q9UM73). Nature of the test: Inhibitory activity against the kinase activity of EML4-ALK fusion protein (HTRF KinEASE-TK). It counts as biochemical. Particulars: ATP 100 μM, reaction 1 hour. The source says:
A recombinant retrovirus was created from expression plasmid FLAG-EML4-ALKv1/pMX-iresCD8 in which cDNA for EML4-ALK fusion protein v1 was integrated, and injected into mouse lymphoid cell line BA/F3 cells. Using a magnetic bead reagent for cell separation and a purification column (anti-CD8 monoclonal antibody immobilized on magnetic beads and a MiniMACS purification column; both are products of Miltenyi Biotec Inc.), cell surface CD8-expressing cells were purified to establish EML4-ALK fusion protein v1-expressing BA/F3 cells. From the cells, EML4-ALK fusion protein v1 was purified and subjected to kinase activity evaluation. EML4-ALK fusion protein v1 was investigated for its phosphorylation activity toward a peptide substrate by using a kinase activity detection kit (HTRF KinEASE-TK; Cisbio Inc.). […] The ATP concentration used was 100 μM.
(In general: In TR-FRET formats the signal depends on donor and acceptor labels being close together.)

In test [2] the test system is BA/F3 cells expressing EML4-ALK fusion protein v1. Nature of the test: Growth inhibitory activity against EML4-ALK fusion protein-dependent cells. The format is cell-based, mouse. Conditions: growth of EML4-ALK fusion protein v1-expressing BA/F3 cells, cultured 2 days. As to the method: EML4-ALK fusion protein v1-expressing BA/F3 cells can grow in the absence of IL-3. In other words, they are cells that EML4-ALK fusion protein v1-dependently grow.
In a 96-well plate (Iwaki), BA/F3 cells expressing EML4-ALK fusion protein v1 were seeded at 500 cells per well in RPMI1640 medium (Invitrogen) containing 10% fetal bovine serum, followed by addition of a test compound (final concentration: 10 μM to 0.1 nM). As a negative control, DMSO used as a solvent of the test compound was added. Then, the cells were cultured under 5% CO2 at 37° C. for 2 days. A cell counting reagent (AlmarBlue; Biosource) was added, and the cells were cultured for 150 minutes, followed by measurement of fluorescence intensity with a […] (Safire; Tecan) in accordance with instructions attached to the reagent.

For test [3], the system named is EML4-ALK fusion protein v1 expressing 3T3 cells. Nature of the test: Antitumor test (in vivo) on EML4-ALK fusion protein v1 expressing 3T3 cells. Particulars: oral 10 mg/kg once a day for 5 days, Balb/c nude mice, EML4-ALK v1 3T3 tumor; for rate of regression (tumor volume): values marked (regression). From the text:
Expression plasmid EML4-ALKv1/pMXS in which cDNA for EML4-ALK fusion protein v1 was integrated was trasfected into 3T3 fibroblast cells by the phosphate calcium method to thereby establish EML4-ALK fusion protein v1 expressing 3T3 cells. 3×10^6 cells of EML4-ALK fusion protein v1 expressing 3T3 cells suspended in PBS were inoculated subcutaneously by injection to the back of 5 weeks old male Balb/c nude mice (Charles River Japan, Inc.). After 7 days of the inoculation, the administration of test compound was initiated. The test was conducted in the solvent group and the compound group, 4 animals per group. The test compound was suspended in a solvent composed of 0.5% methylcellulose and administered orally at a dose of 10 mg/kg. Administrations were performed once a day for 5 days, and body weight and tumor size were measured every other day. Tumor volume was calculated using the following formula. [Tumor volume(mm^3)]=[Tumor major axis(mm)]×[tumor minor axis(mm)]^2×0.5
When regression of tumor volume is induced from the day of starting administration, the tumor volume on the day of starting administration and the state in which the tumor disappeared were assumed to be 0% regression and 100% regression, respectively, and the rate of regression of the test compound was calculated.

Sequence of EML4-ALK fusion protein v1 (Q9UM73 other isoform, or with tags, fused parts or gaps): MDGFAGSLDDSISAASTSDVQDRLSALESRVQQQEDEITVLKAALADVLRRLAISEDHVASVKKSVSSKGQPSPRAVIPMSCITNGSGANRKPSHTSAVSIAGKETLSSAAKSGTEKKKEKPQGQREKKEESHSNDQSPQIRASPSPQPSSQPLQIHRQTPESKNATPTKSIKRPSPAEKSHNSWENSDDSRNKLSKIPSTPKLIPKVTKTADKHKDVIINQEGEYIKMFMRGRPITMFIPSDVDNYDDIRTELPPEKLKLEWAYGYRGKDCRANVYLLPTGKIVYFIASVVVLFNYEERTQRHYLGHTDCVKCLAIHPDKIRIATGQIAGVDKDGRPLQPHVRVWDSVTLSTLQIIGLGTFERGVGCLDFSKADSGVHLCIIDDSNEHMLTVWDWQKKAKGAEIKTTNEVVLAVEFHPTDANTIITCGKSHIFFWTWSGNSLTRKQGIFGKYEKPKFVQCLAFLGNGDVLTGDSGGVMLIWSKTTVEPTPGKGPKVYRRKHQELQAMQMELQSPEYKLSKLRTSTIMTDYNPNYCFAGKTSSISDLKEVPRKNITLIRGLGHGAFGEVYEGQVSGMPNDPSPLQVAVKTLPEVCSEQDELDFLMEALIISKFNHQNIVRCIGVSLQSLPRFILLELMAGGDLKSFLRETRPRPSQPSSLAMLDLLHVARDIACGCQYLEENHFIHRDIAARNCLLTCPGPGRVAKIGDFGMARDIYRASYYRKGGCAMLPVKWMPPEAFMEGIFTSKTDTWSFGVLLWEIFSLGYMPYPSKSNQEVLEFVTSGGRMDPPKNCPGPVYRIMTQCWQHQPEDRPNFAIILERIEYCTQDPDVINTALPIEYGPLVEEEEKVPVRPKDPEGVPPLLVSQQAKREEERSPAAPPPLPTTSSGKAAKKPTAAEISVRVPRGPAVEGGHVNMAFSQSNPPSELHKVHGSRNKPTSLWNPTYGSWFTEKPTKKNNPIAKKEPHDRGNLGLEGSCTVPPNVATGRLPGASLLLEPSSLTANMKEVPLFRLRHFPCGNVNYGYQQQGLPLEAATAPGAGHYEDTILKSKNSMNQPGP

Broadly, the pIC50 is the negative decadic logarithm of the IC50, by convention in mol/L. Low readings indicate a large IC50, high ones a small IC50. In the case of `CCc1nc(C(N)=O)c(Nc2ccc(N3CCC(N4CCN(C)CC4)CC3)cc2)nc1NC1CCOCC1` [Example 546], the pIC50 in test [1] was 8.11; in test [2] (Mus musculus, BaF3, 48 h) it was 7.64. In test [3], the “inhibition rate (tumor volume)” value was found to be 79%.
In the same order, the values of `CCc1nc(C(N)=O)c(Nc2ccc(N3CCC(N4CCN(C)CC4)CC3)c(C(F)(F)F)c2)nc1N[C@H]1CC[C@H](O)CC1` [Example 370] are 9.19, 8.31 and 81%.
As to `CC(C)c1nc(C(N)=O)c(Nc2ccc(N3CCN(C)CC3)cc2)nc1NC1CCOCC1` [Example 554], the pIC50 was 8.35 in test [1] and 7.85 in test [2] (Mus musculus, BaF3, 48 h).
Turning to `CCc1nc(C(N)=O)c(Nc2ccc(N3CCC(N4CCN(C)CC4)CC3)c(C)c2)nc1N[C@H]1CC[C@H](O)CC1` [Example 378], the negative logarithm of the IC50 (pIC50) is 9.59 in test [1] and 8.21 in test [2] (Mus musculus, BaF3, 48 h). For the same compound, the “inhibition rate (tumor volume)” value in test [3] is listed as 92%.
As for `CCc1nc(C(N)=O)c(Nc2ccc(N3CCN(C)CC3)c(C)c2)nc1N[C@H]1CC[C@H](O)CC1` [Example 377], the pIC50 in test [1] is 9.62; in test [2] (Mus musculus, BaF3, 48 h) it was 8.16.
In the same order, the values of `Cc1cc(Nc2nc(N[C@H]3CC[C@H](O)CC3)c(Cl)nc2C(N)=O)ccc1N1CCC(N2CCN(C)CC2)CC1` [Example 538] are 8.64 and 8.11.
In the same order, the values of `CCc1nc(C(N)=O)c(Nc2ccc(N3CCC(N4CCN(C)CC4)CC3)c(C)c2)nc1NC1CCC(O)(CC)CC1` (stereo not drawn) [Example 490] are 8.51 and 7.74.
Turning to `CCc1nc(C(N)=O)c(Nc2ccc(N3CCC(N(C)C)C3)c(C(F)(F)F)c2)nc1N[C@H]1CC[C@H](O)CC1` (stereo partly drawn) [Example 406], the negative-log IC50 (pIC50) in test [1] was 9.47; in test [2] (Mus musculus, BaF3, 48 h), 8.01.
With `CCc1nc(C(N)=O)c(Nc2ccc(N3CCC(N4CCN(C)CC4)CC3)c(C)c2)nc1N[C@H]1CC[C@](C)(O)CC1` [Example 466], the pIC50 in test [1] was 9.03; in test [2] (Mus musculus, BaF3, 48 h), 8.03. In test [3], the “rate of regression (tumor volume)” value is given as 54 (regression) %.
Turning to `CCc1nc(C(N)=O)c(Nc2ccc(N3CCN(C)CC3)c(OC)c2)nc1N[C@H]1CC[C@H](O)CC1` [Example 355], the pIC50 in test [1] was 9.48; in test [2] (Mus musculus, BaF3, 48 h) it was 8.04.
The matching figures for `CC(C)c1nc(C(N)=O)c(Nc2ccc(N3CCC(N4CCN(C)CC4)CC3)c(C(F)(F)F)c2)nc1N[C@H]1CC[C@H](O)CC1` [Example 388]: 9.77 and 8.39.
Turning to `CCc1nc(C(N)=O)c(Nc2ccc(N3CCC(N4CCN(C)CC4)CC3)c(C)c2)nc1NC1CCC(O)(C(C)C)CC1` (stereo not drawn) [Example 493], the negative logarithm of the IC50 (pIC50) in test [1] is 8.59; in test [2], 7.72.
With `CCc1nc(C(N)=O)c(Nc2ccc(N3CCN(C(C)C)CC3)c(C)c2)nc1N[C@H]1CC[C@H](O)CC1` [Example 426], the negative logarithm of the IC50 (pIC50) is 9.31 in test [1] and 7.96 in test [2] (Mus musculus, BaF3, 48 h). Besides, the “inhibition rate (tumor volume)” value in test [3] worked out at 81%.
For the compound `CCc1nc(C(N)=O)c(Nc2ccc(N3CCC(N4CCN(C)CC4)CC3)c(C)c2)nc1N[C@H]1CC[C@@](C)(O)CC1` [Example 392], the pIC50 in test [1] is 9.68; in test [2] (Mus musculus, BaF3, 48 h), 8.20. In addition, the “rate of regression (tumor volume)” value in test [3] is on record as 28 (regression) %.
In the same order, the values of `CCc1nc(C(N)=O)c(Nc2ccc(N3CCN(C4CCN(C)CC4)CC3)c(C)c2)nc1NC1CCOCC1` [Example 558] are 8.66, 7.80 and 37 (regression) %.
In the case of `CCc1nc(C(N)=O)c(Nc2cccc(S(C)(=O)=O)c2)nc1N[C@H]1CC[C@H](O)CC1` [Example 86], the negative-log IC50 (pIC50) is 7.77 in test [1] and 7.17 in test [2] (Mus musculus, BaF3, 48 h).
In the same order, the values of `CCc1nc(C(N)=O)c(Nc2ccc(N3CCC(N4CCN(C)CC4)CC3)cc2OC)nc1N[C@H]1CC[C@H](O)CC1` [Example 284] are 8.05 and 7.07.
In the same order, the values of `CCc1nc(C(N)=O)c(Nc2ccc(N3CCN(CC4CC4)CC3)c(C(F)(F)F)c2)nc1N[C@H]1CC[C@H](O)CC1` [Example 399] are 9.03 and 7.96.
In the same order, the values of `CC(C)c1nc(C(N)=O)c(Nc2ccc(N3CCN(C)CC3)cc2)nc1N[C@H]1CC[C@H](O)CC1` [Example 343, 5-[(trans-4-hydroxycyclohexyl)amino]-6-isopropyl-3-{[4-(4-methylpiperazin-1-yl)phenyl]amino}pyrazine-2-carboxamide] are 8.68 and 7.96.
For the compound `CCc1nc(C(N)=O)c(Nc2ccc(N3CCC(N4CCN(C)CC4)CC3)c(C)c2)nc1NC1CCC(O)(CC)CC1` (stereo not drawn) [Example 491], the pIC50 in test [1] is 8.55; in test [2], 7.80.
`CCc1nc(C(N)=O)c(Nc2ccc(OC)c(N3CCN(C)CC3)c2)nc1N[C@H]1CC[C@H](O)CC1` [Example 383]: the negative logarithm of the IC50 (pIC50) was 9.64 in test [1] and 8.23 in test [2] (Mus musculus, BaF3, 48 h).
As to `CCc1nc(C(N)=O)c(Nc2ccc(N3CCC(N4CCN(C)CC4)CC3)c(C)c2)nc1NC1CCC(O)(C(C)C)CC1` (stereo not drawn) [Example 494], the pIC50 was 8.39 in test [1] and 7.38 in test [2].
As for `CCc1nc(C(N)=O)c(Nc2ccc(N3CCN(C)CC3)c(F)c2)nc1NC1CCOCC1` [Example 550], the pIC50 was 7.96 in test [1] and 7.41 in test [2] (Mus musculus, BaF3, 48 h).
In the same order, the values of `CCc1nc(C(N)=O)c(Nc2ccc(N3CCN(C)CC3)c(C(F)(F)F)c2)nc1N[C@H]1CC[C@H](O)CC1` [Example 354] are 9.11 and 8.07.
The matching figures for `CCc1nc(C(N)=O)c(Nc2ccc(N3CCN(C)CC3)c(C)c2)nc1N[C@H]1CC[C@@](C)(O)CC1` [Example 391]: 9.66 and 8.19.
For the compound `COc1cc(Nc2nc(NC3CCOCC3)c(C(C)C)nc2C(N)=O)ccc1N1CCN(C)CC1` [Example 553], in test [3], the “inhibition rate (tumor volume)” value was 63%.
As for `CCc1nc(C(N)=O)c(Nc2ccc(N3CCN(C)CC3)cc2)nc1N[C@H]1CC[C@H](O)CC1` [Example 325], the negative-log IC50 (pIC50) in test [1] was 8.28; in test [2] (Mus musculus, BaF3, 48 h), 7.70.
On to `CCc1nc(C(N)=O)c(Nc2ccc3cnn(C)c3c2)nc1N[C@H]1CC[C@H](O)CC1` [Example 328], for which the negative-log IC50 (pIC50) in test [2] (Mus musculus, BaF3, 48 h) was 7.12.
Turning to `CCc1nc(C(N)=O)c(Nc2ccc(N3CCC(N4CCN(C)CC4)CC3)c(C)c2)nc1NC1CCOCC1` [Example 512], the pIC50 was 8.82 in test [1] and 7.72 in test [2] (Mus musculus, BaF3, 48 h).
The compound `CCc1nc(C(N)=O)c(Nc2ccc(N3CCC(N4CCN(C)CC4)CC3)c(OC)c2)nc1NC1CCOCC1` [Example 547] gave a pIC50 in test [2] (Mus musculus, BaF3, 48 h) of 8.24.
Take `CCOc1cc(Nc2nc(N[C@H]3CC[C@H](O)CC3)c(CC)nc2C(N)=O)ccc1N1CCC(N2CCN(C)CC2)CC1` [Example 459]: the negative-log IC50 (pIC50) in test [1] is 9.59; in test [2] (Mus musculus, BaF3, 48 h), 8.09.
As to `CCc1nc(C(N)=O)c(Nc2ccc(N3CCC(N4CCN(C)CC4)CC3)c(OC)c2)nc1N[C@H]1CC[C@H](O)CC1` [Example 340], the pIC50 in test [1] was 9.43; in test [2] (Mus musculus, BaF3, 48 h) it was 8.02.
The matching figures for `CCc1nc(C(N)=O)c(Nc2ccc(N3CCN(C)CC3)cc2)nc1NC1CCOCC1` [Example 545]: 7.96 and 7.60.
In the same order, the values of `CCc1nc(C(N)=O)c(Nc2ccc(N3CCC(N4CCN(C)CC4)CC3)cc2)nc1N[C@H]1CC[C@H](O)CC1` [Example 341] are 8.55 and 7.96.

The values above are taken from patent US8969336B2, “Diamino heterocyclic carboxamide compound” (Astellas Pharma Inc., priority 2009, dated 2015).
